One data set concerns Alternaria solani. The experiment in a line: Alternaria test (tomato)/protective. It is filed as in vivo. The conditions noted are these: young tomato plants sprayed, 1500 ppm, protective; evaluation 7 days following inoculation; 0% = control, 100% = no infestation.
For another data set, the system named is Phytophthora infestans. Format: in vivo. The note with it: young tomato plants sprayed, 1500 ppm, protective; evaluation 7 days following inoculation; 0% = control, 100% = no infestation.
Data set [1] is described as follows: log P determination by HPLC on reversed-phase column (EEC Directive 79/831 Annex V.A8). The conditions noted are these: reversed-phase C18 HPLC column, reversed-phase C 18, 43° C., acidic range pH 2.7, 0.1% aqueous formic acid/acetonitrile. It is filed as physicochemical. As to the method: The log P values reported in the preparation examples and tables above are determined in accordance with EEC Directive 79/831 Annex V.A8 by means of HPLC (High Performance Liquid Chromatography) on a reversed-phase column (C 18). Temperature: 43° C.
The determination with the LC-MS in the acidic range takes place at a pH of 2.7 using 0.1% aqueous formic acid and acetonitrile (containing 0.1% formic acid) as eluents: linear gradient from 10% acetonitrile to 95% acetonitrile.
Calibration takes place using unbranched alkan-2-ones (having 3 to 16 carbon atoms) of which the log P values are known (log P values determined on the basis of the retention times, by linear interpolation between two successive alkanones).

Another data set concerns Venturia inaequalis. Nature of the data set: Venturia test (apple)/protective. It is filed as in vivo. The note with it: young apple plants sprayed, 250 ppm, protective; evaluation 10 days following inoculation; 0% = control, 100% = no infestation. The text has this: An appropriate preparation of active compound is produced by mixing 1 part by weight of active compound with the stated amounts of solvent and emulsifier and diluting the concentrate with water to the desired concentration. To test for protective activity, young plants are sprayed with the preparation of active compound at the stated application rate. After the spray coating has dried on, the plants are inoculated with an aqueous conidia suspension of the causative organism of apple scab, Venturia inaequalis, and then spend 1 day in an incubation cabin at approximately 20° C. and 100% relative humidity. Subsequently the plants are placed in a greenhouse at approximately 21° C. and approximately 90% humidity. After 10 clays following inoculation, evaluation takes place. Here, 0% denotes an efficacy which corresponds to that of the control, whereas an efficacy of 100% means that no infestation is observed.

For another data set, the system named is Botrytis cinerea. The experiment in a line: Botrytis test (bean)/protective. It is filed as in vivo. The conditions noted are these: young bean plants sprayed, 500 ppm, protective; size of infestation spots 2 days following inoculation; 0% = control, 100% = no infestation. The text has this: An appropriate preparation of active compound is produced by mixing 1 part by weight of active compound with the stated amounts of solvent and emulsifier and diluting the concentrate with water to the desired concentration. To test for protective activity, young plants are sprayed with the preparation of active compound at the stated application rate. After the spray coating has dried on, 2 small pieces of agar on which Botrytis cinerea is growing are placed on each leaf. The inoculated plants are placed in a darkened chamber at approximately 20° C. and 100% relative humidity. After 2 clays following inoculation, the size of the infestation spots on the leaves is evaluated. Here, 0% denotes an efficacy which corresponds to that of the control, whereas an efficacy of 100% means that no infestation is observed.

In the next data set the test system is Plasmopara viticola. Nature of the data set: Plasmopara test (grapevine)/protective. Format: in vivo. The note with it: young grapevine plants sprayed, 250 ppm, protective; evaluation 6 days following inoculation; 0% = control, 100% = no infestation. The text has this: An appropriate preparation of active compound is produced by mixing 1 part by weight of active compound with the stated amounts of solvent and emulsifier and diluting the concentrate with water to the desired concentration. To test for protective activity, young plants are sprayed with the preparation of active compound at the stated application rate. After the spray coating has dried on, the plants are inoculated with an aqueous spore suspension of Plasmopara viticola and then spend 1 day in an incubation cabin at approximately 20° C. and 100% relative humidity. Subsequently the plants are placed for 4 days in a greenhouse at approximately 21° C. and approximately 90% humidity. The plants are then moistened and placed in an incubation cabin for 1 day. After 6 days following inoculation, evaluation takes place. Here, 0% denotes an efficacy which corresponds to that of the control, whereas an efficacy of 100% means that no infestation is observed.

For orientation: chromatographic logP means a lipophilicity value derived from retention on a column. Read a low chromatographic logP as lower lipophilicity.

Take `Cc1c(C)c(=O)c2sc(C#N)c(C#N)sc=2c1=O` [Compound 43, 6,7-dimethyl-5,8-dioxo-5,8-dihydro-1,4-benzodithiine-2,3-dicarbonitrile]: in the data set with Alternaria solani, the Efficacy in % turned out to be 100%.

Consider `COc1c(Cl)c(=O)c2sc(C#N)c(C#N)sc=2c1=O` [Compound 44, 6-chloro-7-methoxy-5,8-dioxo-5,8-dihydro-1,4-benzodithiine-2,3-dicarbonitrile], for which the Efficacy in % with Alternaria solani was 100%.

In turn, `CC(C)(C)c1cc(=O)c2sc(C#N)c(C#N)sc=2c1=O` [Compound 45, 6-tert-butyl-5,8-dioxo-5,8-dihydro-1,4-benzodithiine-2,3-dicarbonitrile] showed an Efficacy in % in the data set with Phytophthora infestans of 78%.

Turning to `Cc1c(C)c(O)c2c(c1O)SC(C#N)=C(C#N)S2` [Compound 47, 5,8-dihydroxy-6,7-dimethyl-1,4-benzodithiine-2,3-dicarbonitrile], the Efficacy in % with Alternaria solani was 100%; with Venturia inaequalis it was 100%; in the data set with Botrytis cinerea, 100%; with Plasmopara viticola, 92%; in the data set on Phytophthora infestans it was 89%. In addition, in data set [1], the chromatographic logP stood at 2.26.

For the molecule `COc1c(O)c2c(c(O)c1Cl)SC(C#N)=C(C#N)S2` [Compound 48, 6-chloro-5,8-dihydroxy-7-methoxy-1,4-benzodithiine-2,3-dicarbonitrile], the Efficacy in % is given as 100% in the data set with Alternaria solani; 100% in the data set with Venturia inaequalis; 97% in the data set with Botrytis cinerea; 90% in the data set on Plasmopara viticola; 94% in the data set with Phytophthora infestans. The molecule further showed a chromatographic logP in data set [1] of 2.19.

`CC(C)(C)c1cc(O)c2c(c1O)SC(C#N)=C(C#N)S2` [Compound 49, 6-tert-butyl-5,8-dihydroxy-1,4-benzodithiine-2,3-dicarbonitrile]: the Efficacy in % was 100% in the data set with Alternaria solani; 100% in the data set on Venturia inaequalis; 96% with Botrytis cinerea; 92% in the data set on Plasmopara viticola; 94% in the data set with Phytophthora infestans. In data set [1], this molecule returned a chromatographic logP of 2.95.

The record behind these values is patent US9295255B2, “Use of dithiine derivatives in crop protection and the protection of materials” (Bayer Intellectual Property GmbH, priority 2010, dated 2016).
